Results on 22 molecules are retold here after patent US9487483B2, “Complement pathway modulators and uses thereof” (priority 2012, dated 2016).

For the first test, the target named is Recombinant human factor D (Homo sapiens (Human), UniProt P00746). Description: biochemical. It counts as biochemical. To be noted: Factor D inhibition data using Method 1; substrate Z-Lys-thiobenzyl, fluorescence readout; read-out: IC50.
Recombinant human factor D, sequence (P00746 26-253): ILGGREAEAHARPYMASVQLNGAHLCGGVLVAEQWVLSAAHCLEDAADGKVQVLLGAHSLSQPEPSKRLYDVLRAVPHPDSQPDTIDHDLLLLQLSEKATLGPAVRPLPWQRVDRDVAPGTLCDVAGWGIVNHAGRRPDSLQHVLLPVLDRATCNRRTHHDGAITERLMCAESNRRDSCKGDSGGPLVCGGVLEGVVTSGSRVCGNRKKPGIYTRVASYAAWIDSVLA
As usually defined, the IC50 is the point on the concentration scale where inhibition reaches its midpoint. For `CC(=O)c1nn(CC(=O)N2[C@@H]3C[C@@H]3C[C@H]2C(=O)N[C@@H]2CCC[C@H](C)C2)c2ccc(OCc3ncccn3)cc12` [Example 96, (1R,3S,5R)-2-{2-[3-Acetyl-5-(pyrimidin-2-ylmethoxy)-indazol-1-yl]-acetyl}-2-aza-bicyclo[3.1.0]hexane-3-carboxylic acid ((1R,3S)-3-methyl-cyclohexyl)-amide], the IC50 came out at 90 nM.

For the molecule `CC(=O)c1nn(CC(=O)N2[C@@H]3C[C@@H]3C[C@H]2C(=O)NC2CC(C)(C)C2)c2ccc(OCc3ncccn3)cc12` [Example 103, (1R,3S,5R)-2-{2-[3-Acetyl-5-(pyrimidin-2-ylmethoxy)-indazol-1-yl]-acetyl}-2-aza-bicyclo[3.1.0]hexane-3-carboxylic acid (3,3-dimethyl-cyclobutyl)-amide], the IC50 came out at 36 nM.

As for `CC1(C)C[C@H](O)C[C@@H](NC(=O)[C@@H]2C[C@H]3C[C@H]3N2C(=O)Cn2nc(C(N)=O)c3ccccc32)C1` [Example 108, 1-{2-[(1R,3S,5R)-3-((1S,5S)-5-Hydroxy-3,3-dimethyl-cyclohexylcarbamoyl)-2-aza-bicyclo[3.1.0]hex-2-yl]-2-oxo-ethyl}-1H-indazole-3-carboxylic acid amide], the concentration for half-maximal inhibition (IC50) came to 2230 nM.

As to `CC1(C)C[C@@H](O)C[C@H](NC(=O)[C@@H]2C[C@H]3C[C@H]3N2C(=O)Cn2nc(C(N)=O)c3ccccc32)C1` [Example 109, 1-{2-[(1R,3S,5R)-3-((1R,5R)-5-Hydroxy-3,3-dimethyl-cyclohexylcarbamoyl)-2-aza-bicyclo[3.1.0]hex-2-yl]-2-oxo-ethyl}-1H-indazole-3-carboxylic acid amide], the IC50 amounted to 28 nM.

On to `CC1(C)CCCC(NC(=O)[C@@H]2C[C@@]3(CO)C[C@H]3N2C(=O)Cn2nc(C(N)=O)c3ccccc32)C1` (stereo partly drawn) [Example 110, 1-{2-[(1R,3S,5S)-3-(3,3-Dimethyl-cyclohexylcarbamoyl)-5-hydroxymethyl-2-aza-bicyclo[3.1.0]hex-2-yl]-2-oxo-thyl}-1H-indazole-3-carboxylic acid amide], for which the half-inhibitory concentration (IC50) was found to be 48 nM.

Consider `CC1(C)CCC[C@@H](NC(=O)[C@@H]2C[C@@]3(CO)C[C@H]3N2C(=O)Cn2nc(C(N)=O)c3ccccc32)C1` [Example 111, 1-{2-[(1R,3S,5S)-3-((R)-3,3-Dimethyl-cyclohexylcarbamoyl)-5-hydroxymethyl-2-aza-bicyclo[3.1.0]hex-2-yl]-2-oxo-ethyl}-1H-indazole-3-carboxylic acid amide], for which the IC50 amounted to 10 nM.

Consider `CC1(C)CCC[C@H](NC(=O)[C@@H]2C[C@@]3(CO)C[C@H]3N2C(=O)Cn2nc(C(N)=O)c3ccccc32)C1` [Example 112, 1-{2-[(1R,3S,5S)-3-((S)-3,3-Dimethyl-cyclohexylcarbamoyl)-5-hydroxymethyl-2-aza-bicyclo[3.1.0]hex-2-yl]-2-oxo-ethyl}-1H-indazole-3-carboxylic acid amide], for which the concentration for half-maximal inhibition (IC50) amounted to 370 nM.

Take `CC(=O)c1nn(CC(=O)N2[C@H](C(=O)N[C@@H]3CCCC(C)(C)C3)C[C@@]3(CO)C[C@@H]23)c2ncccc12` [Example 115, (1R,3S,5S)-2-[2-(3-Acetyl-pyrazolo[3,4-b]pyridin-1-yl)-acetyl]-5-hydroxymethyl-2-aza-bicyclo[3.1.0]hexane-3-carboxylic acid ((R)-3,3-dimethyl-cyclohexyl)-amide]: the IC50 was determined as 22 nM.

On to `CC(=O)c1nn(CC(=O)N2[C@H](C(=O)N[C@H]3CCCC(C)(C)C3)C[C@@]3(CO)C[C@@H]23)c2ncccc12` [Example 116, (1R,3S,5S)-2-[2-(3-Acetyl-pyrazolo[3,4-b]pyridin-1-yl)-acetyl]-5-hydroxymethyl-2-aza-bicyclo[3.1.0]hexane-3-carboxylic acid ((S)-3,3-dimethyl-cyclohexyl)-amide], for which the IC50 is 1600 nM.

Regarding `CC1(O)CCCC(NC(=O)[C@@H]2C[C@H]3C[C@H]3N2C(=O)Cn2nc(C(N)=O)c3ccccc32)C1` (stereo partly drawn) [Example 123, 1-(2-((1R,3S,5R)-3-(3-hydroxy-3-methylcyclohexylcarbamoyl)-2-azabicyclo[3.1.0]hexan-2-yl)-2-oxoethyl)-1H-indazole-3-carboxamide], the 50% inhibitory concentration (IC50) stood at 920 nM.

On to `C[C@]1(CO)CCC[C@@H](NC(=O)[C@@H]2C[C@H]3C[C@H]3N2C(=O)Cn2nc(C(N)=O)c3ccccc32)C1` [Example 127, 1-(2-((1R,3S,5R)-3-(((1R,3S)-3-(hydroxymethyl)-3-methylcyclohexyl)carbamoyl)-2-azabicyclo[3.1.0]hexan-2-yl)-2-oxoethyl)-1H-indazole-3-carboxamide], for which the IC50 is 80 nM.

With `C[C@@]1(CO)CCC[C@H](NC(=O)[C@@H]2C[C@H]3C[C@H]3N2C(=O)Cn2nc(C(N)=O)c3ccccc32)C1` [Example 128, 1-(2-((1R,3S,5R)-3-(((1S,3R)-3-(hydroxymethyl)-3-methylcyclohexyl)carbamoyl)-2-azabicyclo[3.1.0]hexan-2-yl)-2-oxoethyl)-1H-indazole-3-carboxamide], the 50% inhibitory concentration (IC50) was determined as 2210 nM.

The same test, now with this note: read-out: IC50.
As to `CC(=O)c1nn(CC(=O)N2[C@@H]3C[C@@H]3C[C@H]2C(=O)N[C@H]2CCCC(C)(C)C2)c2ccc(OCc3ncccn3)cc12` [Example 97, (1R,3S,5R)-2-{2-[3-Acetyl-5-(pyrimidin-2-ylmethoxy)-indazol-1-yl]-acetyl}-2-aza-bicyclo[3.1.0]hexane-3-carboxylic acid ((S)-3,3-dimethyl-cyclohexyl)-amide], the IC50 was 341 nM.

Consider `CC(=O)c1nn(CC(=O)N2[C@@H]3C[C@@H]3C[C@H]2C(=O)N[C@@H]2CCCC(C)(C)C2)c2ccc(OCc3ncccn3)cc12` [Example 98, (1R,3S,5R)-2-{2-[3-Acetyl-5-(pyrimidin-2-ylmethoxy)-indazol-1-yl]-acetyl}-2-aza-bicyclo[3.1.0]hexane-3-carboxylic acid ((R)-3,3-dimethyl-cyclohexyl)-amide], for which the half-maximal inhibitory concentration (IC50) came out at 11 nM.

As for `CC(=O)c1nn(CC(=O)N2[C@@H]3C[C@@H]3C[C@H]2C(=O)NC2CC(F)(F)C2)c2ccc(OCc3ncccn3)cc12` [Example 104, (1R,3S,5R)-2-{2-[3-Acetyl-5-(pyrimidin-2-ylmethoxy)-indazol-1-yl]-acetyl}-2-aza-bicyclo[3.1.0]hexane-3-carboxylic acid (3,3-difluoro-cyclobutyl)-amide], the IC50 came to 273 nM.

Regarding `CO[C@@H]1C[C@@H](NC(=O)[C@@H]2C[C@H]3C[C@H]3N2C(=O)Cn2nc(C(N)=O)c3ccccc32)CC(C)(C)C1` [Example 105, 1-{2-[(1R,3S,5R)-3-((1S,5S)-5-Methoxy-3,3-dimethyl-cyclohexylcarbamoyl)-2-aza-bicyclo[3.1.0]hex-2-yl]-2-oxo-ethyl}-1H-indazole-3-carboxylic acid amide], the IC50 was 225 nM.

With `CO[C@H]1C[C@H](NC(=O)[C@@H]2C[C@H]3C[C@H]3N2C(=O)Cn2nc(C(N)=O)c3ccccc32)CC(C)(C)C1` [Example 106, 1-{2-[(1R,3S,5R)-3-((1R,5R)-5-Methoxy-3,3-dimethyl-cyclohexylcarbamoyl)-2-aza-bicyclo[3.1.0]hex-2-yl]-2-oxo-ethyl}-1H-indazole-3-carboxylic acid amide], the IC50 came out at 18 nM.

Regarding `COC1CC(NC(=O)[C@@H]2C[C@H]3C[C@H]3N2C(=O)Cn2nc(C(N)=O)c3ccccc32)CC(C)(C)C1` (stereo partly drawn) [Example 107, 1-{2-[(1R,3S,5R)-3-(cis-5-Methoxy-3,3-dimethyl-cyclohexylcarbamoyl)-2-aza-bicyclo[3.1.0]hex-2-yl]-2-oxo-ethyl}-1H-indazole-3-carboxylic acid amide], the concentration for half-maximal inhibition (IC50) is 467 nM.

As for `CC(=O)c1nn(CC(=O)N2[C@H](C(=O)N[C@@H]3CCCC(C)(C)C3)C[C@@]3(CO)C[C@@H]23)c2cnccc12` [Example 121, (1R,3S,5S)-2-[2-(3-Acetyl-pyrazolo[3,4-c]pyridin-1-yl)-acetyl]-5-hydroxymethyl-2-aza-bicyclo[3.1.0]hexane-3-carboxylic acid ((R)-3,3-dimethyl-cyclohexyl)-amide], the concentration for half-maximal inhibition (IC50) turned out to be 15 nM.

As to `CC(=O)c1nn(CC(=O)N2[C@H](C(=O)N[C@H]3CCCC(C)(C)C3)C[C@@]3(CO)C[C@@H]23)c2cnccc12` [Example 122, (1R,3S,5S)-2-[2-(3-Acetyl-pyrazolo[3,4-c]pyridin-1-yl)-acetyl]-5-hydroxymethyl-2-aza-bicyclo[3.1.0]hexane-3-carboxylic acid ((S)-3,3-dimethyl-cyclohexyl)-amide], the IC50 was determined as 2200 nM.

As to `CC(=O)c1nn(CC(=O)N2[C@@H]3C[C@@H]3C[C@H]2C(=O)N[C@H]2C[C@H](O)CC(C)(C)C2)c2ccccc12` [Example 124, (1R,3S,5R)-2-(2-(3-acetyl-1H-indazol-1-yl)acetyl)-N-((1R,5R)-5-hydroxy-3,3-dimethylcyclohexyl)-2-azabicyclo[3.1.0]hexane-3-carboxamide], the IC50 was 10 nM.

Take `CC(=O)c1nn(CC(=O)N2[C@@H]3C[C@@H]3C[C@H]2C(=O)N[C@@H]2C[C@@H](O)CC(C)(C)C2)c2ccccc12` [Example 125, (1R,3S,5R)-2-(2-(3-acetyl-1H-indazol-1-yl)acetyl)-N-((1S,5S)-5-hydroxy-3,3-dimethylcyclohexyl)-2-azabicyclo[3.1.0]hexane-3-carboxamide]: the concentration for half-maximal inhibition (IC50) amounted to 1100 nM.
